In ChEMBL document CHEMBL4507270 (2021):
The source made the active and inactive calls. The rule behind the calls is not given here.

Columns and labels:
[1] = target: 5-hydroxytryptamine receptor 2C (Homo sapiens) (UniProt P28335); details: Compound concentration 10.0 uM
[2] = target: Mitogen-activated protein kinase 12 (Homo sapiens) (UniProt P53778)
[3] = target: Serine/threonine-protein kinase Nek7 (Homo sapiens) (UniProt Q8TDX7)
[4] = test system: Proto-oncogene tyrosine-protein kinase receptor Ret (Homo sapiens), P07949 [V804L]
[5] = target: Tyrosine-protein kinase Lyn (Homo sapiens) (UniProt P07948)
[6] = target: Phosphatidylinositol 3-kinase catalytic subunit type 3 (Homo sapiens) (UniProt Q8NEB9)
[7] = target: Tyrosine-protein kinase ITK/TSK (Homo sapiens) (UniProt Q08881)
[8] = test system: Tyrosine-protein kinase ABL1 (Homo sapiens), P00519 [H396P]
[9] = target: Calcium/calmodulin-dependent protein kinase type 1G (Homo sapiens) (UniProt Q96NX5)
[10] = target: Platelet-derived growth factor receptor beta (Homo sapiens, UniProt P09619)
[11] = target: Serine/threonine-protein kinase NIM1 (Homo sapiens) (UniProt Q8IY84)
[12] = target: Serine/threonine-protein kinase 38-like (Homo sapiens) (UniProt Q9Y2H1)
[13] = target: Serine/threonine-protein kinase ICK (Homo sapiens) (UniProt Q9UPZ9)
[14] = target: Ribosomal protein S6 kinase alpha-4 (Homo sapiens) (UniProt O75676)
[15] = target: D(4) dopamine receptor (Homo sapiens) (UniProt P21917); details: Compound concentration 10.0 uM
[16] = target: Cyclin-dependent kinase 7 (Homo sapiens) (UniProt P50613)
[17] = target: Serine/threonine-protein kinase PLK3 (Homo sapiens) (UniProt Q9H4B4)
[18] = target: Rho-associated protein kinase 2 (Homo sapiens) (UniProt O75116)
[19] = target: Non-receptor tyrosine-protein kinase TYK2 (Homo sapiens) (UniProt P29597)
[20] = target: T1, Discoidin domain-containing receptor 2 (Homo sapiens, UniProt Q16832); test: NanoBRET assay (SGC Frankfurt) with DDR2
T1 sequence (Q16832 whole entry): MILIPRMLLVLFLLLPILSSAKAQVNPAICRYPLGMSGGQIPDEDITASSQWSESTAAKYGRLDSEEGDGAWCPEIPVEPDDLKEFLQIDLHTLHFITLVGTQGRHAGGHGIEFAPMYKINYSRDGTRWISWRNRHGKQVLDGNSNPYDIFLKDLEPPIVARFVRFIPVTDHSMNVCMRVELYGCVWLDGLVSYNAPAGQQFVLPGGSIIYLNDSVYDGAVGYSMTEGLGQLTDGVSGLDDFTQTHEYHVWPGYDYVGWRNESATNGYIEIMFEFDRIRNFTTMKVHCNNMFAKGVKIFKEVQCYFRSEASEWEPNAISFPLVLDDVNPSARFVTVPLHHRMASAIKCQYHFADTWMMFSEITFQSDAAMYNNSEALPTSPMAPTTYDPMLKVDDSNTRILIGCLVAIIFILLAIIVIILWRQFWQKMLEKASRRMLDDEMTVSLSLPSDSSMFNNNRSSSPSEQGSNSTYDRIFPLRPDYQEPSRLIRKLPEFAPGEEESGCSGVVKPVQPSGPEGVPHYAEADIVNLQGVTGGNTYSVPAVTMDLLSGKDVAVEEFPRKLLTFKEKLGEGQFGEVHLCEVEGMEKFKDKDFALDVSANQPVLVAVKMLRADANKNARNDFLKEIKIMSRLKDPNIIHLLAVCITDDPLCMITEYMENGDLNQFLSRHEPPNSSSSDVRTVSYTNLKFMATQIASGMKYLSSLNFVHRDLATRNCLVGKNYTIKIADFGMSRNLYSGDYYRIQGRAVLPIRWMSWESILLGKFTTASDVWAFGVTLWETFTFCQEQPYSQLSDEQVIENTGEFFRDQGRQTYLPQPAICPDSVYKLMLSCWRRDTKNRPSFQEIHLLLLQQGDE

[21] = target: Receptor-interacting serine/threonine-protein kinase 4 (Homo sapiens) (UniProt P57078)
[22] = target: Myosin light chain kinase 2, skeletal/cardiac muscle (Homo sapiens) (UniProt Q9H1R3)
[23] = target: ALK tyrosine kinase receptor (Homo sapiens) (UniProt Q9UM73)
[24] = target: Serine/threonine-protein kinase tousled-like 1 (Homo sapiens) (UniProt Q9UKI8)
[25] = target: Activin receptor type-2A (Homo sapiens) (UniProt P27037)
[26] = target: Testis-specific serine/threonine-protein kinase 3 (Homo sapiens) (UniProt Q96PN8)
[27] = target: Myosin-IIIa (Homo sapiens) (UniProt Q8NEV4)
[28] = target: Ephrin type-B receptor 3 (Homo sapiens) (UniProt P54753)
[29] = target: Tyrosine-protein kinase SYK (Homo sapiens) (UniProt P43405)
[30] = target: Dual specificity mitogen-activated protein kinase kinase 7 (Homo sapiens) (UniProt O14733)
[31] = target: Transient receptor potential cation channel subfamily M member 6 (Homo sapiens) (UniProt Q9BX84)
[32] = target: Inhibitor of nuclear factor kappa-B kinase subunit alpha (Homo sapiens) (UniProt O15111)
[33] = test system: Fibroblast growth factor receptor 3 (Homo sapiens), P22607 [G697C]
[34] = Compound concentration 1000.0 nM
[35] = Compound concentration 100.0 nM

Sequence of Serine/threonine-protein kinase NIM1 (Homo sapiens) (Q8IY84 whole entry): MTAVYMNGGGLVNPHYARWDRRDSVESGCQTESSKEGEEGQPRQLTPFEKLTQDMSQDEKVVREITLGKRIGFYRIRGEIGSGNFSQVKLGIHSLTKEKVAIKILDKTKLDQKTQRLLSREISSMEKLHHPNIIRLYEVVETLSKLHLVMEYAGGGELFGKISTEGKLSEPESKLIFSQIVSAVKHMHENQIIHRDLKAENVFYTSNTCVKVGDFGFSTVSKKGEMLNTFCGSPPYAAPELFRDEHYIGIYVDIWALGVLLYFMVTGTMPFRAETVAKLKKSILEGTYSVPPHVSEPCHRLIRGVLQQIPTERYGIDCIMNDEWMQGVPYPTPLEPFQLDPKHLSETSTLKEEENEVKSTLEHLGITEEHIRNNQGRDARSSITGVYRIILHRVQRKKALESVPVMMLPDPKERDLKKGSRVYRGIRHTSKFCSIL
Sequence of Proto-oncogene tyrosine-protein kinase receptor Ret (Homo sapiens), P07949 [V804L] (P07949 whole entry V804L): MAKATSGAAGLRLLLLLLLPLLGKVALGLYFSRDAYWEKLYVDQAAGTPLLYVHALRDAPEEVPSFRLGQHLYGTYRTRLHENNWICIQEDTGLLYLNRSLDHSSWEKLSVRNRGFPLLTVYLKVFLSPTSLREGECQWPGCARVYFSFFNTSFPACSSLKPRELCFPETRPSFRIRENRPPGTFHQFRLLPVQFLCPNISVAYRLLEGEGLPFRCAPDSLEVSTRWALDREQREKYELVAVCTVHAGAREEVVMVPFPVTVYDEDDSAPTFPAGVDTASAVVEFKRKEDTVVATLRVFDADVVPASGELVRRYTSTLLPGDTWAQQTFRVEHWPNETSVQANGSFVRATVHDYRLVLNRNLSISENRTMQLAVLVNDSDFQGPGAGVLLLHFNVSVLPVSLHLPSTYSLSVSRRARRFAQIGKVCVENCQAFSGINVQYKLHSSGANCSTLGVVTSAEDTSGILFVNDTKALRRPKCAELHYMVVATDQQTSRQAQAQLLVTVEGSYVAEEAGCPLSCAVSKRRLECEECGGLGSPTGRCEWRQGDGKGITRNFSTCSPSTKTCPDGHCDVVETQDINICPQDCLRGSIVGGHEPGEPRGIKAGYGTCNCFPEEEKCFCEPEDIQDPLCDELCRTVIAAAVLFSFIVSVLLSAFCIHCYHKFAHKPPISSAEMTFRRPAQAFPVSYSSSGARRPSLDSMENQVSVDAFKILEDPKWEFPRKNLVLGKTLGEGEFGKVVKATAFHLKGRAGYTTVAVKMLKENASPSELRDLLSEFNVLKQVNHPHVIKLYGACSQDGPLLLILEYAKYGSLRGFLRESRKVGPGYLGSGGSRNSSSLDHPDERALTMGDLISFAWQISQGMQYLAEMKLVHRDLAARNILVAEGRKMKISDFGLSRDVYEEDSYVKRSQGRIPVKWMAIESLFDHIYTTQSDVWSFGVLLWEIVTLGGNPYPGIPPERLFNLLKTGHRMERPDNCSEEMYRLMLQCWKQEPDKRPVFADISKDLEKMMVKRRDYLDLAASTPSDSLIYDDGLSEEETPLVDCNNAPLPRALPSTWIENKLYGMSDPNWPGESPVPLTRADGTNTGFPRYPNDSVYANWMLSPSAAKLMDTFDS
Sequence of Non-receptor tyrosine-protein kinase TYK2 (Homo sapiens) (P29597 whole entry, the tested form may be a part): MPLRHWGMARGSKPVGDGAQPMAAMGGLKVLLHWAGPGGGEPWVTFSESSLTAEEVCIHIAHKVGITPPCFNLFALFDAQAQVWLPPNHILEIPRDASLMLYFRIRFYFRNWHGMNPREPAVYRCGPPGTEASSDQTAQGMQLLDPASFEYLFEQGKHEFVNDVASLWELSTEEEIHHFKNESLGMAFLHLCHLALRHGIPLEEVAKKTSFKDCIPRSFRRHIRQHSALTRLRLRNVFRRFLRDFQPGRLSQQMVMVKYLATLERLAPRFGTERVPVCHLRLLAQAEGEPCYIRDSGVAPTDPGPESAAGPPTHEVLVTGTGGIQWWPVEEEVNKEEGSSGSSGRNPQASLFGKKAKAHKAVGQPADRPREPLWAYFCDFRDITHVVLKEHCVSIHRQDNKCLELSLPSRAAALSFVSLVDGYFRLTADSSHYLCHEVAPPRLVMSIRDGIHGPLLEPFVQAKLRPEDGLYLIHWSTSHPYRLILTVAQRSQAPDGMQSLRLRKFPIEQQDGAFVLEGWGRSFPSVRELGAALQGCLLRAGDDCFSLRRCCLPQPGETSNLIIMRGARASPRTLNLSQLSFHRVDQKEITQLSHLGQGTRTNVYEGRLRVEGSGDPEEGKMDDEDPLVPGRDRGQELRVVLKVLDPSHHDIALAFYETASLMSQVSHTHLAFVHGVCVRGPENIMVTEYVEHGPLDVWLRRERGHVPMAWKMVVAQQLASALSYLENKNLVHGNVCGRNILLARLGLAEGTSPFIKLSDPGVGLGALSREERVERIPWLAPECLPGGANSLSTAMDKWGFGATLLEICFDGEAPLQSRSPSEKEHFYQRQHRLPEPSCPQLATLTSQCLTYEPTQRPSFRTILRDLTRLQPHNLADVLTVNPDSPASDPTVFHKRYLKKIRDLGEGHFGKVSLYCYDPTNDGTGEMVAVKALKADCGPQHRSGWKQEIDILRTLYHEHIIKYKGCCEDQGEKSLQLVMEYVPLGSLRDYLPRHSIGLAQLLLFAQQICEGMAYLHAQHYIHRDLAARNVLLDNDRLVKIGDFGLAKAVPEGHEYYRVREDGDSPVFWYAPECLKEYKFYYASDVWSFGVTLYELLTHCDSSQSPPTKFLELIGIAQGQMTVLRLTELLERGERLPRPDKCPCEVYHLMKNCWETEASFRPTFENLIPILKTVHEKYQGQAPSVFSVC
Sequence of D(4) dopamine receptor (Homo sapiens) (P21917 whole entry): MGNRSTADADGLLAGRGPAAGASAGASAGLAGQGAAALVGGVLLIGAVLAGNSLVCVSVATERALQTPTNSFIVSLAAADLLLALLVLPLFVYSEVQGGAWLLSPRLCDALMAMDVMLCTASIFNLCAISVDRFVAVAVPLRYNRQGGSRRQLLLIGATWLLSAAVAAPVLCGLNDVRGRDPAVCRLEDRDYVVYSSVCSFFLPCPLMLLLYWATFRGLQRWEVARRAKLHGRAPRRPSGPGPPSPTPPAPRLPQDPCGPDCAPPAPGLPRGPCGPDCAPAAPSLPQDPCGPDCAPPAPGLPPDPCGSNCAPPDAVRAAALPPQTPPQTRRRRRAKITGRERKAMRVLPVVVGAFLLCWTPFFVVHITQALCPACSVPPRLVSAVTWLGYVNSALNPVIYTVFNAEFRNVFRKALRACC
Sequence of Receptor-interacting serine/threonine-protein kinase 4 (Homo sapiens) (P57078 whole entry): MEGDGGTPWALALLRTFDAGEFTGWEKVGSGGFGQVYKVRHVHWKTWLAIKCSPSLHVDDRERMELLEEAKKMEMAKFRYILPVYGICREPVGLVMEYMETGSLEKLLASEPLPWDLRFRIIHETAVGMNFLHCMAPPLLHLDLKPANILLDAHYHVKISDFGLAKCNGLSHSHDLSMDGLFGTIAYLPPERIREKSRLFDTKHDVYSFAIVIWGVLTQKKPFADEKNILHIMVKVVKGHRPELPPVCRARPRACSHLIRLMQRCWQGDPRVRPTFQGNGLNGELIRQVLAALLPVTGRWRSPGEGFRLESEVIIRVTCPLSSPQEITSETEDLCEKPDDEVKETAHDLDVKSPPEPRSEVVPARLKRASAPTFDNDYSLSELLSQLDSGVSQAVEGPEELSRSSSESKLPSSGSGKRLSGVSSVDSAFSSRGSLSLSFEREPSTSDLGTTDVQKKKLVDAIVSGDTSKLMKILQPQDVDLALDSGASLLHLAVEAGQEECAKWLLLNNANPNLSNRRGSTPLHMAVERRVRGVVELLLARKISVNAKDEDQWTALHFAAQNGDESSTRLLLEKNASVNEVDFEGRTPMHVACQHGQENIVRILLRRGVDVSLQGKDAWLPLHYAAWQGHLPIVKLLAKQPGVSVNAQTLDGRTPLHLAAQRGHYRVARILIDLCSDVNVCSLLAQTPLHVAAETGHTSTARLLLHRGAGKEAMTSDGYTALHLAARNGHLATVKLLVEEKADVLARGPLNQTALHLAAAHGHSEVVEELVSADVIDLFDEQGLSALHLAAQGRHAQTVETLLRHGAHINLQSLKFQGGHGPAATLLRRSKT
Sequence of Ephrin type-B receptor 3 (Homo sapiens) (P54753 whole entry): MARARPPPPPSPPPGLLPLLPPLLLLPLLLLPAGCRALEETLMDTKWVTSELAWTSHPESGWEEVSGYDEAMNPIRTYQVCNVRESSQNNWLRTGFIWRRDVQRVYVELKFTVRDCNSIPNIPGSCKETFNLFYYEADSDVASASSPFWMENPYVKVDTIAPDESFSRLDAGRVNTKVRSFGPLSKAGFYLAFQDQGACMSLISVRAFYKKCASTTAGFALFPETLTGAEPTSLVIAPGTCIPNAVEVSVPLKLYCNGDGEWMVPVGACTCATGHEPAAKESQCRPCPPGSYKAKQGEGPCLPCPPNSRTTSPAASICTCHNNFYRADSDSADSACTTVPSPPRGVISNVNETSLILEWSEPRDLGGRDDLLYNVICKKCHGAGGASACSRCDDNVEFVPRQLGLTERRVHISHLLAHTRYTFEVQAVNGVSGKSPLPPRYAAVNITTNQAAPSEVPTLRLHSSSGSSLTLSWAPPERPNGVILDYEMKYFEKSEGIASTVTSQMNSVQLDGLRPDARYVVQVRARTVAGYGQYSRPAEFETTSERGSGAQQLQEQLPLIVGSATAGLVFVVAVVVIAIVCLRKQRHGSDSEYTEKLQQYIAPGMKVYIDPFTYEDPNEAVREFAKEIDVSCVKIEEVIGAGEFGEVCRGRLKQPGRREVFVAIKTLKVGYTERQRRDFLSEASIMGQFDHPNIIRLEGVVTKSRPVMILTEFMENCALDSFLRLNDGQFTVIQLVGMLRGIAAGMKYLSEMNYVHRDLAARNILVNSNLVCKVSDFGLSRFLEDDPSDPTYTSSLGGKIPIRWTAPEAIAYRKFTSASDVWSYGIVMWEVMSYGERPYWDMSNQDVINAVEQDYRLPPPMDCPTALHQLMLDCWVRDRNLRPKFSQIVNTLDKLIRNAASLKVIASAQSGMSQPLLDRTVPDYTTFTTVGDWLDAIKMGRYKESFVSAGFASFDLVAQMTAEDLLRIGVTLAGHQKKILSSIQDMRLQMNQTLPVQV

SMILES: Cc1cc(NC(=O)c2cccc(S(F)(F)(F)(F)F)c2)cc(-n2ccn3nc(-c4cccnc4)cc23)c1 [BAY-309]
- inhibition [1]: 66%
- residual activity [2, 34]: 41.7%
- residual activity [3, 34]: 100%
- residual activity [4, 34]: 100%
- residual activity [5, 34]: 100%
- residual activity [6, 34]: 76.6%
- residual activity [7, 34]: 100%
- residual activity [8, 34]: 100%
- residual activity [9, 34]: 100%
- residual activity [10, 34]: 100%
- residual activity [11, 34]: 100%
- residual activity [12, 34]: 100%
- residual activity [13, 34]: 64.2%
- residual activity [14, 34]: 100%
- inhibition [15]: 12.4%
- residual activity [16, 34]: 100%
- residual activity [17, 34]: 69.4%
- residual activity [18, 34]: 87.6%
- residual activity [19, 34]: 51%
- EC50 [20]: 2700 nM (not active)
- IC50 [20]: 9300 nM (not active)
- residual activity [21, 34]: 34.1%
- residual activity [22, 34]: 100%
- residual activity [23, 34]: 68.1%
- residual activity [24, 34]: 100%
- residual activity [25, 34]: 100%
- residual activity [26, 34]: 100%
- residual activity [27, 34]: 100%
- residual activity [28, 34]: 100%
- residual activity [29, 34]: 95.5%
- residual activity [30, 34]: 89.7%
- residual activity [31, 34]: 97%
- residual activity [32, 34]: 71.1%
- residual activity [33, 34]: 100%

SMILES: Cc1cc(C)c(-n2ccn3nc(-c4cccnc4)cc23)cc1NC(=O)c1cc(C#N)cc(S(F)(F)(F)(F)F)c1 [BAY-826]
- inhibition [1]: 34.5%
- residual activity [2, 35]: 61.2%
- residual activity [3, 35]: 75.5%
- residual activity [4, 35]: 93.6%
- residual activity [5, 35]: 46%
- residual activity [6, 35]: 84.9%
- residual activity [7, 35]: 84.9%
- residual activity [8, 35]: 87.5%
- residual activity [9, 35]: 100%
- residual activity [10, 35]: 74.8%
- residual activity [11, 35]: 98.9%
- residual activity [12, 35]: 98.9%
- residual activity [13, 35]: 74.1%
- residual activity [14, 35]: 100%
- inhibition [15]: 16.4%
- residual activity [16, 35]: 70.1%
- residual activity [17, 35]: 81.8%
- residual activity [18, 35]: 66.2%
- residual activity [19, 35]: 76.9%
- EC50 [20]: 0.54 nM (active)
- IC50 [20]: 3 nM (active)
- residual activity [21, 35]: 62.9%
- residual activity [22, 35]: 100%
- residual activity [23, 35]: 94.4%
- residual activity [24, 35]: 89.1%
- residual activity [25, 35]: 100%
- residual activity [26, 35]: 76.9%
- residual activity [27, 35]: 94.9%
- residual activity [28, 35]: 100%
- residual activity [29, 35]: 100%
- residual activity [30, 35]: 70.8%
- residual activity [31, 35]: 80.2%
- residual activity [32, 35]: 100%
- residual activity [33, 35]: 100%
